# Data reported in patent US20260137693A1, “CANCER TREATMENTS USING MTA-COOPERATIVE PRMT5 INHIBITORS AND MAT2A INHIBITORS” (AMGEN INC., priority 2022, published 2026).
# Key:
# [1] = tested on: NSCLC cancer cell line CALU1; assay: Combination of Compound A and Compound B, CellTiter-Glo cell viability, CALU1 (Example 2); assay type: cell-based; settings: CALU1, 6 days, up to 10 μM
# Experimental: NSCLC cancer cell line CALU1 was treated with the combination of Compound A and Compound B for 6 days. Top concentration of Compound A tested was 10 μM with a total of nine 1.9-fold dilutions and DMSO-only control. Top concentration of Compound B tested was 10 μM with a total of five 2-fold dilutions and DMSO-only control. Cell viability was measured by the CellTiter-Glo Luminescence assay. Raw luminescent values were converted to POC with the following equation: POC=100*(Treatment/Vehicle). FIG. 1 represents 1 of the 2 studies conducted. N=2 technical replicates. Mean and standard deviation graphed.
# [2] = tested on: Pancreatic cancer cell line BxPC3; assay: Combination of Compound A and Compound B, CellTiter-Glo cell viability, BxPC3 (Example 2); assay type: cell-based; settings: BxPC3, 6 days, up to 10 μM
# Experimental: Pancreatic cancer cell line BxPC3 was treated with the combination of Compound A and Compound B for 6 days. Top concentration of Compound A tested was 2 μM with a total of nine 1.9-fold dilutions and DMSO-only control. Top concentration of Compound B tested was 10 μM with a total of five 2-fold dilutions and DMSO-only control. Cell viability was measured by the CellTiter-Glo Luminescence assay. Raw luminescent values were converted to POC with the following equation: POC=100*(Treatment/Vehicle). FIG. 2 represents 1 of the 3 studies conducted. N=2 technical replicates. Mean and standard deviation graphed.
smiles,measurement,setting,value
"Nc1nc(=O)n(-c2ccccc2Cl)c2nc(C(F)(F)F)ccc12 [Compound B, 4-amino-1-(2-chlorophenyl)-7-(trifluoromethyl)pyrido[2,3-d]pyrimidin-2(1H)-one]",sensitivity of the model to single agent,[1],insensitive
same,sensitivity of the model to single agent,[2],insensitive
